# How the values were obtained:
# [1] = test system: U266, RPMI, and MM1S cells; test: Apoptosis (annexin) and necrosis (propidium iodide) by HDAC inhibitors, FIG. 15; type: cell-based, human; details: 24 and 48 hours, 0.25, 0.5, and 1 μM
# Procedure: Apoptosis was measured by annexin staining while cell necrosis was measured by propidium iodide staining.
# (§1) CD44 surface expression was analyzed by staining cells with CD44-FITC antibody (BD Biosciences) for 30 min. in the dark, at room temperature. Apoptosis was measured by Annexin V-FITC and Propidium Iodide (PI) (Clontech) staining for 15 min. in the dark, at room temperature and data immediately acquired on a Beckman Coulter FC500 (Beckman Coulter) machine. Analysis was conducted using the FlowJo Software vX.0.7 (Tree Star Inc.). For the multiparametric analysis, the bone marrow samples were stained with CD38-PE (347687; BD Bioscience), CD138-APC (347193; BD Bioscience), CD45-ECD (A07784; Beckman Coulter), CD44-FITC (BD Bioscience) and AnnexinV-FITC (Clontech) for 30 minutes, washed with PBS and immediately analyzed with Gallios cytometer (Beckman Coulter).
# CD44 [2] = test: CD44 expression in whole bone marrow of MM patients by flow cytometry; type: cell-based, human; details: 24 hrs; all 5 Len-refractory and 2 of the 3 newly diagnosed MM patients
# Procedure: Since MM cell survival is strongly dependent on microenvironment, the effects of AR-42 in combination with Len on MM cell killing in the context of the bone marrow (BM) milieu was examined. Total BM samples obtained from 5 Len-refractory MM (patients 1, 2, 3, 4, and 7) and 3 newly diagnosed MM patients (patients 5, 6, and 8) were treated with AR-42 (0.2 μM) and Len (5 μM) as single agents, and in combination. […] The BM cells from the same patients were used to assess CD44 expression at 24 hrs after AR-42 treatment.
# as §1
# Mouse data were evaluated by ANOVA, and synergy between AR-42 and Len was tested by interaction contrast. […]
# CD44 mRNA = CD44 mRNA by qRT-PCR in MM cells; type: cell-based, human
# Procedure: Reduction of CD44 mRNA and protein persisted for 48 hours after treatment (FIGS. 2C-2D and data not shown).
# (§2) Quantitative real time-PCR (qRT-PCR) was performed with the TaqMan method (Applied Biosystems), according to the manufacturer's instructions, and analyzed with the 7900HT Sequence Detection System (Applied Biosystems). The appropriate TaqMan probes for mRNA, miRNA, and pri-miRNA quantification were purchased from Applied Biosystems, and all reactions were performed in triplicate. The following probes were used: hsa-miR-9-5p (000583), hsa-mir-9-1 (Hs03303201_pri), hsa-miR-9-2 (Hs03303202_pri), hsa-mir-9-3 (Hs03293595_pri), CD44 (Hs01075861_ml), IGF2BP3 (Hs00559907_g1). Simultaneous quantification of ornithine decarboxylase antizyme 1 (OAZ1), or GAPDH mRNAs were used as a reference for mRNA data normalization, while small endogenous nucleolar RNA U44/U48, or U6 were used for miRNA normalization. The relative expression levels were calculated by the comparative cycle threshold (Ct) method (User Bulletin #2; Applied Biosystems). Expression analyses of pre-miRNA was performed with SYBR green PCR master mix (Applied Biosystems) and normalized for U6 RNA. All primers used for amplification steps are listed in the Supplementary materials and methods.
# miR-9-5p = miR-9-5p expression by stem loop qRT-PCR; type: cell-based, human; details: 24 hours, dose dependent, vs control
# Procedure: 51 miRNAs were differentially expressed between the two groups.
# as §2
# CD44 [3] = test: nCounter GX Human Immunology gene expression in MM.1S cells; type: cell-based; details: 0.1 μM, 24-hr, p<0.001
# Procedure: Growth inhibitory and pro-apoptotic properties of AR-42 as a single agent treatment agent have been reported previously in numerous malignancies, including MM. Because of the potent immunomodulatory effects observed with classical pan-HDACi's, immunology-related gene networks altered upon AR-42 treatment in MM cells were investigated using nCounter technology to analyze the effects of AR-42 on the expression of 511 human genes in MM.1S cells following 24-hr treatment with 0.1 μM AR-42.
# Total RNA was prepared using TRIzol (Invitrogen). The RNA was analyzed by nCounter GX Human Immunology Kit, or nCounter Human microRNA Kit, as recommended by the manufacturer (NanoString Technologies, Inc.). A total of 511 immunology related genes and 800 microRNAs were profiled.
# Samples analyzed by NanoString assay were normalized using the variance stabilization. The mean linkage hierarchical clustering algorithm was conducted to identify subgroups of significant miRNAs. […] The obtained data were deposited in the GEO database (accession number).
# MM.1S cell line = test: Tumor size in MM.1S subcutaneous xenograft mice; type: in vivo; details: 25 mg/kg, 2 injections, at sacrifice
# Procedure: To investigate if AR-42 treatment could affect CD44 expression in vivo, a xenograft MM mouse model was created by injecting 1×10^7 viable cells of MM.1S cell line subcutaneously into the right flank of 12 NOD-SCID mice. […] One group of mice (n=4) received intra-peritoneal injections of 25 mg/kg AR-42, while the second group (n=4) was injected with vehicle control (8% DMSO in PBS; Ctrl). Injections were administered once a day (on Monday and Wednesday). Because the anti-tumor activity of AR-42 has been previously reported in preclinical mouse studies, mice were sacrificed 2 days after the second injection in order to avoid tumor size reduction. […] Tumors were excised and used for CD44 immunohistochemical (IHC) studies, while the serum was collected for ELISA assays. […] Thus, AR-42 down-regulates CD44 directly in vivo.
# Animal experiments were performed according to OSU institutional guidelines. To generate MM xenograft model, 1×10^7 viable MM.1S cells were injected subcutaneously into the right flank of 12 […]. The tumor size was measured once a week using a caliper, and the volume was calculated in cubed millimeters (mm3), using the formula L×W2/2. […] Mice were treated with […] injection of AR-42 (25 mg/kg) or DMSO (8% in PBS) once a day on Monday and Wednesday.
smiles,measurement,setting,value
"CC(C)[C@H](C(=O)Nc1ccc(C(=O)NO)cc1)c1ccccc1 [AR-42, (S)-N-hydroxy-4-(3-methyl-2-phenylbutanamido)benzamide]",apoptosis (annexin staining),[1],highest level of apoptosis
same,cell necrosis (propidium iodide staining),[1],lowest levels of cell necrosis
same,CD44 expression in whole BM,CD44 [2],Downregulation
same,persistence of reduction of CD44 mRNA and protein after treatment,CD44 mRNA,48 h
same,CD44 mRNA,"CD44 mRNA; 24-hr treatment, dose-dependent, vs DMSO control",consistently downregulated
same,miR-9-5p expression levels,miR-9-5p,increased
same,CD44 gene expression (nCounter),CD44 [3],most significantly downregulated
same,tumor size vs vehicle group,MM.1S cell line,still comparable

# — patent US10022342B2, “Methods and compositions for treating multiple myeloma” (Ohio State Innovation Foundation, priority 2015, dated 2018)
